The record followed here is patent publication US5126327A, “Melanocyte-stimulating hormone inhibitor and external preparation containing the same” (Lion Corporation, priority 1989, dated 1992).

Residues, ends and D or L forms follow the SMILES beside them. No end group written: not given here.

For data set [1], the system named is pigmented spots (chloasmata or freckles). Description: External preparation applied to pigmented spots of patients. It is filed as in vivo, human. The note with it: for Skin trouble during or after use of the cream / Fading/relief of pigmented spots versus comparative cream: cream containing 0.001 wt. % of compound; for Skin trouble during or after use of the cream: twice a day for two months; for Fading/relief of pigmented spots versus comparative cream: applied twice a day for two months, eight male and female patients. An excerpt: The cream thus prepared was applied to pigmented spots (chloasmata or freckles) of eight male and female patients twice a day (in the morning and evening) for two months.

The subject of data set [2] is hair follicle melanocytes. Description: MSH-inhibiting effect: eumelanin production in cultured skin grafts, specimen pre-mixed with α-MSH (Example 10). The note with it: for Eumelanin production, 10^-9 M of α-MSH and 10^-8 M of specimen added: α-MSH and specimen mixed first, then skin grafts added, Ham's F-12, 37° C., 2 days. Further details: key: ±: weak; +: strong. In kind it is cell-based, yellow mice (C 57 BL/6J-A'). The procedure: (§1) Skin grafts (about 1 mm×1 mm) of yellow mice (C 57 BL/6J-A') (7.5 days after the birth) containing hair follicle melanocytes were cultured in Ham's F-12 culture medium at 37° C. for 2 days. The culture media used were: (i) Ham's F-12 medium containing α-MSH, (ii) that containing both α-MSH and the compound of the present invention, i.e., α-MSH and the compound of the present invention were mixed so as to interact each other and then the skin grafts were added thereto, and (iii) that containing no additive. After completion of the culture followed by fixation with 10% formalin, specimens were prepared by an ordinary method.

For data set [3], the system named is hair follicle melanocytes. Description: MSH-antagonizing effect: eumelanin production in cultured skin grafts, specimen pre-incubated with grafts before α-MSH (Example 2). It is filed as cell-based, yellow mice (C 57 BL/6J-A'). Further details: key: ±: weak; +: strong. The note with it: skin grafts cultured in Ham's F-12 at 37° C. for 2 days; for Eumelanin production, 10^-9 M of α-MSH and 10^-8 M of specimen added: microscope observation at hair follicles. As for the experimental part:
as §1, with “i.e.,” for “i.e., α-MSH and”, “and the skin grafts had been incubated in a Ham's F-12 medium” for “were mixed”, “the compounds with a receptor on the melanocyte surface of the skin” for “each other”, “resultant was contacted with α-MSH in a fresh Ham's F-12 medium” for “skin grafts were added thereto,”

As for `CC[C@H](C)[C@H](NC(=O)[C@H](CC(C)C)NC(=O)[C@H](CC(C)C)NC(=O)[C@H](CC(C)C)NC(=O)[C@H](CCC(N)=O)NC(=O)[C@H](CC(C)C)NC(=O)[C@H](C)NC(=O)[C@H](Cc1c[nH]cn1)NC(=O)[C@@H](N)CC(C)C)C(=O)N[C@@H](CC(C)C)C(=O)N[C@@H](CC(C)C)C(=O)N[C@@H](C)C(=O)N[C@@H](CS)C(=O)N[C@@H](C)C(=O)N[C@@H](CCCNC(=N)N)C(=O)N[C@H](C(=O)N[C@@H](CO)C(=O)N1CCC[C@H]1C(=O)NCC(=O)N[C@@H](CCCNC(=N)N)C(=O)N[C@@H](CCCNC(=N)N)C(=O)O)[C@@H](C)CC` [Compound No. 132, Leu--His--Ala--Leu--Gln--Leu--Leu--Leu--Ile--Leu--Leu--Ala--Cys--Ala--Arg--Ile--Ser--Pro--Gly--Arg--Arg] (H-LHALQLLLILLACARISPGRR-OH), the “Skin trouble during or after use of the cream” value in data set [1] was “no skin trouble was observed”.

Regarding “α-MSH: melanocyte-stimulating hormone (melanotropin), peptide hormone that activates melanocytes; stimulus in the skin graft test (SYSMEHFRWGKPV; ends and bridges not checked; UniProt P01189 138-150, looked up) [reference compound]”, the “Eumelanin production, 10^-9 M of α-MSH added” value in data set [2] (α-MSH alone, skin grafts cultured in Ham's F-12 at 37° C. for 2 days) is given as “+”; in data set [3] (α-MSH alone), “+”. Take `CC[C@H](C)[C@H](N)C(=O)N[C@@H](CC(C)C)C(=O)N[C@@H](CC(C)C)C(=O)N[C@@H](C)C(=O)N[C@@H](CS)C(=O)N[C@@H](C)C(=O)N[C@@H](CCCNC(=N)N)C(=O)N[C@H](C(=O)N[C@@H](CO)C(=O)N1CCC[C@H]1C(=O)NCC(=O)N[C@@H](CCCNC(=N)N)C(=O)N[C@@H](CCCNC(=N)N)C(=O)O)[C@@H](C)CC` [Compound No. 113, Ile--Leu--Leu--Ala--Cys--Ala--Arg--Ile--Ser--Pro--Gly--Arg--Arg] (H-ILLACARISPGRR-OH): in data set [1], the “Skin trouble during or after use of the cream” value was “no skin trouble was observed”. For the compound “Ac--Cys--His--Cys--Cys--Trp--Arg--Ser--His--Gln--Pro--Ala--Arg--Pro--NH2 (Ac-CHCCWRSHQPARP-NH2; cysteine pairing not given here) [Compound No. 85]”, in data set [1], the “Fading/relief of pigmented spots versus comparative cream” value is recorded as “relieved the pigmented spots”. Further, the “Eumelanin production, 10^-9 M of α-MSH and 10^-8 M of specimen added” value (from here on “Eumelanin production … of specimen added”) in data set [3] is listed as “±”. In the case of `CSCC[C@H](NC(=O)[C@H](CO)NC(=O)[C@H](Cc1ccc(O)cc1)NC(=O)[C@H](CO)NC(C)=O)C(=O)N[C@@H](CCC(=O)O)C(=O)N[C@@H](Cc1c[nH]cn1)C(=O)N[C@@H](CO)C(=O)N[C@@H](CCCNC(=N)N)C(=O)N[C@@H](Cc1c[nH]c2ccccc12)C(=O)NCC(=O)N[C@@H](CCCCN)C(=O)N1CCC[C@H]1C(=O)N[C@H](C(N)=O)C(C)C` [Compound No. 40, Ac--Ser--Tyr--Ser--Met--Glu--His--Ser--Arg--Trp--Gly--Lys--Pro--Val--NH2], in data set [1], the “Fading/relief of pigmented spots versus comparative cream” value is recorded as “far more faded” and the “Skin trouble during or after use of the cream” value is “no skin trouble was observed”. Also, the “Eumelanin production … of specimen added” value in data set [3] is “±”. Consider `CC[C@H](C)[C@H](NC(=O)[C@H](CC(C)C)NC(=O)[C@H](CC(C)C)NC(=O)[C@H](CC(C)C)NC(=O)[C@H](CCC(N)=O)NC(=O)[C@H](CC(C)C)NC(=O)[C@H](C)NC(=O)[C@H](Cc1c[nH]cn1)NC(=O)[C@H](CC(C)C)NC(C)=O)C(=O)N[C@@H](CC(C)C)C(=O)N[C@@H](CC(C)C)C(=O)N[C@@H](C)C(=O)N[C@@H](CS)C(=O)N[C@@H](C)C(=O)N[C@@H](CCCNC(=N)N)C(=O)N[C@H](C(=O)N[C@@H](CO)C(=O)N1CCC[C@H]1C(=O)NCC(=O)N[C@@H](CCCNC(=N)N)C(=O)N[C@@H](CCCNC(=N)N)C(N)=O)[C@@H](C)CC` [Compound No. 135, Ac--Leu--His--Ala--Leu--Gln--Leu--Leu--Leu--Ile--Leu--Leu--Ala--Cys--Ala--Arg--Ile--Ser--Pro--Gly--Arg--Arg--NH2] (Ac-LHALQLLLILLACARISPGRR-NH2), for which the “Eumelanin production … of specimen added” value in data set [2] is “±”.

As to “Ac--Cys--Cys--Trp--Arg--Ser--His--Gln--Pro--NH2 (Ac-CCWRSHQP-NH2; cysteine pairing not given here) [compound 74]”, the “Eumelanin production … of specimen added” value in data set [3] was “±”. On to `CSCC[C@H](NC(C)=O)C(=O)N[C@@H](CCC(=O)O)C(=O)N[C@@H](Cc1c[nH]cn1)C(=O)N[C@@H](CO)C(=O)N[C@@H](CCCNC(=N)N)C(=O)N[C@@H](Cc1c[nH]c2ccccc12)C(=O)NCC(=O)N[C@@H](CCCCN)C(N)=O` [Compound No. 14, Ac--Met--Glu--His--Ser--Arg--Trp--Gly--Lys--NH2] (Ac-MEHSRWGK-NH2), for which, in data set [3], the “Eumelanin production … of specimen added” value is reported as “±”. Consider `CC[C@H](C)[C@H](NC(C)=O)C(=O)N[C@@H](CC(C)C)C(=O)N[C@@H](CC(C)C)C(=O)N[C@@H](C)C(=O)N[C@@H](CS)C(=O)N[C@@H](C)C(=O)N[C@@H](CCCNC(=N)N)C(=O)N[C@H](C(=O)N[C@@H](CO)C(=O)N1CCC[C@H]1C(=O)NCC(=O)N[C@@H](CCCNC(=N)N)C(=O)N[C@@H](CCCNC(=N)N)C(N)=O)[C@@H](C)CC` [Compound No. 116, Ac--Ile--Leu--Leu--Ala--Cys--Ala--Arg--Ile--Ser--Pro--Gly--Arg--Arg--NH2] (Ac-ILLACARISPGRR-NH2), for which the “Eumelanin production … of specimen added” value in data set [2] is recorded as “±”. Besides, the “Relief of pigmented spots versus comparative milky lotion” value in data set [1] (milky lotion containing 0.0001 % of compound, same method as Example 3) was “relieved the pigmented spots”.
